Laboratory results reported in the supplement of paper PMC5412046.
Where a name gives a salt, the structure may show the parent alone.

Columns and labels:
SB.mhdgc-1 = assay: AC50 for growth inhibition (viability) (log10 M); higher = less potent; conditions: SB.mhdgc-1 (hereditary c.1380delA CDH1 gastric cancer)
Summary of the method: (§1)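 Compound dissolved in DMSO was transferred by pintool, 23 nL per 1536 well, onto 500 hereditary or sporadic patient-derived gastric cancer cells in 5 μL medium. The series spanned 11 threefold dilutions, the highest at a final 46 μM. At 48 h, a 30 min room-temperature incubation with CellTiter-Glo preceded luminescence measurement on a ViewLux. The log half-maximal activity concentration was fitted by a four-parameter model to DMSO-normalised viability, with only high-quality curve classes accepted.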

SB.msgc-1 = assay: as above; conditions: SB.msgc-1 (sporadic gastric cancer)
Summary of the method: as §1

SMILES | AC50 for growth inhibition (log10 M) (SB.mhdgc-1) | AC50 for growth inhibition (log10 M) (SB.msgc-1)
C[N]1C=C(C2=CC=CC=C12)\C3=C(\C(=O)NC3=O)C4=C[N](C5CCN(CC5)CC6=NC=CC=C6)C7=C4C=CC=C7 [Enzastaurin] | -4.98 | -4.98
COc1cccc2c1C(=O)c1c(O)c3c(c(O)c1C2=O)C[C@@](O)(C(=O)CO)C[C@@H]3O[C@H]1C[C@H](N)[C@@H](O)[C@H](C)O1 [Epirubicin hydrochloride] | -6.93 | -6.18
C#Cc1cccc(Nc2ncnc3cc(OCCOC)c(OCCOC)cc23)c1 [Erlotinib hydrochloride] | -6.38 | -5.63
C[C@]12CC[C@@H]3c4ccc(O)cc4CC[C@H]3[C@@H]1[C@@H](O)[C@@H](O)[C@@H]2O [Estetrol] | -4.88 | -4.68
C[C@]12CC[C@@H]3c4ccc(O)cc4CC[C@H]3[C@@H]1CC[C@@H]2O [Estradiol] | -5.28 | -4.93
C#C[C@]1(O)CC[C@H]2[C@@H]3CCc4cc(O)ccc4[C@H]3CC[C@@]21C [Ethinylestradiol] | -4.78 | -4.83
CCC(=O)N[C@H]1CC[C@H](C(=O)N(C)c2ccc(-c3nc4ccccc4o3)cc2)C1 [FASN BI] | -5.93 | -5.93
O=C1c2ccccc2-[n+]2ccc3c([nH]c4ccccc43)c21 [Fascaplysin] | -5.93 | -6.18
COC(=O)Nc1nc2cc(Sc3ccccc3)ccc2[nH]1 [Fenbendazole] | -6.63 | -5.53
CC1=C(/C=C/C(C)=C/C=C/C(C)=C/C(=O)Nc2ccc(O)cc2)C(C)(C)CCC1 [Fenretinide] | -4.67 | -4.52
CC(C)(C)NC(=O)[C@H]1CC[C@H]2[C@@H]3CC[C@H]4NC(=O)\C=C/[C@]4(C)[C@H]3CC[C@]12C [Finasteride] | -6.23 | -5.78
O=C(NCC1CCCCN1)c1cc(OCC(F)(F)F)ccc1OCC(F)(F)F (stereo not given) [Flecainide] | -5.03 | -5.03
OC[C@H]1O[C@H](C[C@@H]1O)N2\C=C(F)/C(=O)NC2=O [Floxuridine] | -7.78 | -6.48
COC(=O)Nc1nc2cc(C(=O)c3ccc(F)cc3)ccc2[nH]1 [Flubendazole] | -5.23 | -6.23
Nc1nc(F)nc2c1ncn2[C@@H]1O[C@H](COP(=O)(O)O)[C@@H](O)[C@@H]1O [Fludarabine phosphate] | -5.13 | -4.98
CC1(C)O[C@@H]2C[C@H]3[C@@H]4C[C@H](F)C5=CC(=O)C=C[C@]5(C)[C@@]4(F)[C@@H](O)C[C@]3(C)[C@]2(C(=O)CO)O1 [Fluocinolone acetonide] | -5.33 | -4.93
F\C1=C\NC(=O)NC1=O [Fluorouracil] | -6.43 | -5.28
OCCN1CCN(CCCN2c3ccccc3Sc3ccc(C(F)(F)F)cc32)CC1 [Fluphenazine hydrochloride] | -4.83 | -4.78
CC(C)C(=O)Nc1ccc([N+](=O)[O-])c(C(F)(F)F)c1 [Flutamide] | -5.83 | -5.63
COCCCC/C(=N\OCCN)c1ccc(C(F)(F)F)cc1 [Fluvoxamine maleate] | -4.63 | -4.88
Cc1cn[nH]c1 [Fomepizole] | -6.68 | -7.18
COc1cc2c(Oc3ccc(NC(=O)C4(C(=O)Nc5ccc(F)cc5)CC4)cc3F)ccnc2cc1OCCCN1CCOCC1 [Foretinib] | -4.83 | -4.73
COc1cc(Nc2ncc(F)c(Nc3ccc4c(n3)N(COP(=O)(O)O)C(=O)C(C)(C)O4)n2)cc(OC)c1OC [Fostamatinib disodium] | -5.33 | -5.93
C[C@@H]1O[C@@H](O[C@H]2C[C@@H](O)[C@]3(CO)[C@H]4[C@H](O)C[C@]5(C)[C@@H](C6=CC(=O)OC6)CC[C@]5(O)[C@@H]4CC[C@]3(O)C2)[C@H](O)[C@H](O)[C@H]1O [G-Strophanthin] | -6.98 | -7.38
Cn1c2ccccc2c2c3c(c4c5ccccc5n(CCC#N)c4c21)CNC3=O [G?-6976] | -5.08 | -5.23

SMILES | AC50 for growth inhibition (log10 M) (SB.mhdgc-1) | AC50 for growth inhibition (log10 M) (SB.msgc-1)
COC1=CC=C2[N](CCCN(C)C)C=C(C2=C1)C/3=C(/C(=O)NC3=O)C4=C[NH]C5=C4C=CC=C5 [G?-6983] | -6.78 | -4.58
CC[C@@H](C)[C@H](NC(=O)[C@H](CC1CCCCC1)NC(=O)c1ccno1)C(=O)N1CCC2(CCc3ccccc32)CC1 [GB 83] | -4.88 | -4.98
CC(C)NC[C@@H](C(=O)N1CCN(c2ncnc3c2[C@H](C)C[C@H]3O)CC1)c1ccc(Cl)cc1 [GDC-0068] | -6.48 | -5.13
CCNC(=O)Nc1ccc(-c2nc3c(c(N4CCOC[C@@H]4C)n2)CCN(C2COC2)C3)cc1 [GDC-0349] | -5.28 | -4.83
C[S+](=O)([O-])N1CCN(Cc2cc3nc(-c4cccc5[nH]ncc45)nc(N4CCOCC4)c3s2)CC1 [GDC-0941] | -7.23 | -6.13
CNC(=O)[C@H](CC/1=C/N=C\2/C=C\C\C=C12)NC(=O)[C@H](CC(C)C)CC(=O)NO [GM-6001] | -6.68 | -5.58
N#C/N=C(\NCCCCCCOc1ccc(Cl)cc1)Nc1ccncc1 [GMX-1778] | -8.08 | -6.88
Cc1nc(N)ncc1-c1nc(N2CCOCC2)c2sc(C(C)(C)O)cc2n1 [GNE-490] | -6.38 | -7.43
CC(C)(O)c1cc2nc(-c3cnc(N)nc3)nc(N3CCOCC3)c2s1 [GNE-493] | -6.98 | -6.88
Cc1ccc(NC(=O)Nc2cc(C(F)(F)F)ccc2F)cc1Nc1ccc2c(c1)NC(=O)/C2=C\c1ccc[nH]1 [GNF-5837] | -4.83 | -4.73
O=C/1NC(=O)C(=C1C2=CN=C3C=CC=C[N]23)/C4=C[N]5CCN(CC6=C5C4=CC=C6)C(=O)N7CCOCC7 [GSK3 Inhibitor] | -5.93 | -4.63
CC[C@H](C)[N]1C=C(C)C2=C1C=C(C=C2C(=O)NC\C3=C(C)\C=C(\C)NC3=O)C4=CC=C(N=C4)N5CCNCC5 [GSK126] | -5.03 | -4.98
CC\1=C(C(\N=C(/N1)C2=CC(=NC=C2)Cl)C3=C(F)C=C(Cl)C=C3)/C(=O)NC4=C(F)C=C5[NH]N=CC5=C4 (stereo not given) [GSK-25] | -5.08 | -4.63
O=C1NC(=O)/C(=C/c2ccc3nccc(-c4ccncc4)c3c2)S1 [GSK-615] | -6.33 | -6.03
O=C(O)Cc1cccc(OCCCN(Cc2cccc(C(F)(F)F)c2Cl)CC(c2ccccc2)c2ccccc2)c1 [GSK-3965] | -4.78 | -4.68
CC(C)c1onc(-c2c(Cl)cccc2Cl)c1COc1ccc(/C=C/c2cccc(C(=O)O)c2)c(Cl)c1 [GW-4064X] | -5.33 | -4.73
CCC(=O)NC[C@H](Cc1ccc(OCCc2nc(-c3ccccc3)oc2C)cc1)N/C(C)=C\C(=O)c1ccc(C(F)(F)F)cc1 [GW-6471] | -5.48 | -4.73
C[C@]\12CC[C@H](O)CC1=C/CC3C2CC[C@@]\4(C)C3C\C=C4[N]5C=NC6=C5C=CC=C6 (stereo not given in full) [Galeterone] | -4.68 | -4.68
Cc1cc(Nc2cc(CN3CCOCC3)c3nc(C)c(Cc4ccc(Cl)cc4F)n3n2)[nH]n1 [Gandotinib] | -4.68 | -4.73
CC(C)C1=C(O)C=C(O)C(=C1)C/2=N/NC(=O)N2C3=CC4=C(C=C3)[N](C)C=C4 [Ganetespib] | -7.33 | -6.93
COc1cc2ncnc(Nc3ccc(F)c(Cl)c3)c2cc1OCCCN1CCOCC1 [Gefitinib] | -5.57 | -6.67
COC1=C2C[C@@H](C)C[C@H](OC)[C@H](O)[C@@H](C)/C=C(\C)[C@H](OC(N)=O)[C@@H](OC)/C=C/C=C(\C)C(=O)NC(=CC1=O)C2=O [Geldanamycin] | -6.58 | -6.43
Cl.Nc1ccn([C@@H]2O[C@H](CO)[C@@H](O)C2(F)F)c(=O)n1 [Gemcitabine] | -7.23 | -7.53
Cc1ccc(C)c(OCCCC(C)(C)C(=O)O)c1 [Gemfibrozil] | -4.78 | -5.13
OC[C@H]1OC(OC2=CC3=C(C(=C2)O)C(=O)\C(=C/O3)C4=CC=C(O)C=C4)[C@H](O)[C@@H](O)[C@@H]1O (stereo not given in full) [Genistin] | -5.78 | -6.33
